Experimental findings from patent US5679671A, “Amino acid derivative” (Eisai Co., Ltd., priority 1993, dated 1997) are described below.

A short description of series [1]: Blood level and bioavailability in rats (Experiment E-2). The settings on record: rat, blood, po. An excerpt: Then changes in the blood level of each medicament were monitored with the lapse of time by using liquid chromatography.
The next series concerns the target T1, ACE (Rattus norvegicus, UniProt P47820).
T1 construct: membrane fraction prepared from rat lung; from tissue; host or cells: rat lung, membrane fraction (method of Wu-Wong et al.)
T1 sequence (P47820 36-1313): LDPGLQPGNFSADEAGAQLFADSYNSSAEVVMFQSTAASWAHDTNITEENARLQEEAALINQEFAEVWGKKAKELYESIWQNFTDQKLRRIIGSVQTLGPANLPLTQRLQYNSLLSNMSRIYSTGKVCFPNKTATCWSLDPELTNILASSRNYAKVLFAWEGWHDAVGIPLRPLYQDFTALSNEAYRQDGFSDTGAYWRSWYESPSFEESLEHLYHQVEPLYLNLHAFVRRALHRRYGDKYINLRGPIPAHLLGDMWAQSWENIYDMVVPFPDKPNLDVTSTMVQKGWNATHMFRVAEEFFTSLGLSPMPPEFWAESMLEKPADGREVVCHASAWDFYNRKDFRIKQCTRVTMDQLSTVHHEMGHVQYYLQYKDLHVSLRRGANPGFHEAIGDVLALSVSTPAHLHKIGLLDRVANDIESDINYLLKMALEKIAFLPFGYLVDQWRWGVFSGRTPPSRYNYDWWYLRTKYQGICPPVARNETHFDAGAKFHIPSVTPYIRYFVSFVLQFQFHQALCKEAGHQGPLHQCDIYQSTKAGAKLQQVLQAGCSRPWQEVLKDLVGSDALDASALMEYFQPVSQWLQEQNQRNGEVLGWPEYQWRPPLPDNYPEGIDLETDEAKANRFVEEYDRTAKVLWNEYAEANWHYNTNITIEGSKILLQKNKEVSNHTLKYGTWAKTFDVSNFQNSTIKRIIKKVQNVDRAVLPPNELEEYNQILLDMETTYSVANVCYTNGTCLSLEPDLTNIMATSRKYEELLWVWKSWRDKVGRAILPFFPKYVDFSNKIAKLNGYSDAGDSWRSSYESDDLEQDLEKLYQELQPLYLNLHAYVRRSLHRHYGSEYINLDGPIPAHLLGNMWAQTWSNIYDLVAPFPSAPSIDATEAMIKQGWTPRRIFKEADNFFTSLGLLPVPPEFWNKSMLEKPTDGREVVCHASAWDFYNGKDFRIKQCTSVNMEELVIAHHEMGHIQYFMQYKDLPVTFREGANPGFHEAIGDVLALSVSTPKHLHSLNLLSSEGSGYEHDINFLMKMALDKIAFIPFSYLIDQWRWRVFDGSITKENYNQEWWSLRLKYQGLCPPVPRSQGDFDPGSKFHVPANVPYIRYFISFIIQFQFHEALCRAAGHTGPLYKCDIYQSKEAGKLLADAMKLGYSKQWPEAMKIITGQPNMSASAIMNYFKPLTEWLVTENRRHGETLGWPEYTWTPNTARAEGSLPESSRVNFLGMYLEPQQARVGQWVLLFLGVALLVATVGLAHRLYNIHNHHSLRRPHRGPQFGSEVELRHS
The series can be described thus: ACE inhibition activity using rat lung (Experiment A-2). It is filed as biochemical. To be noted: rat lung membrane fraction, borate buffer pH 8.3. Here is the method:
The ACE inhibition activity was determined by using a membrane fraction prepared from rat lung in accordance with the method of Wu-Wong et al. (Characterization of Endthelin Converting Enzyme in Rat Lung., Junshyum R. Wu-Wong, Gerald, P. Budzik, Edward M. Devine and Terry J. Opgenorth, Biochem. Biophys. Res. Commun., 1990, 171, 1291-1296.).
The ACE activity was determined with the use of a modification (modified to a borate buffer, pH 8.3) of the method of Cushman and Cheung (Spectrophotometric Assay and Properties of the Angiotensin-Converting Enzyme of Rabbit Lung., Cushman, D. W. and Cheung H. S., 1971, 20, 1637-1648.).
In the presence of ACE, the hippurate liberated from hippuryl-histidyl-leucine (Hippuryl-His-Leu (PeptideInstitute Inc., Japan)) was extracted with ethyl acetate and then the absorbance was measured at a wavelength of 228 nm.
With respect to the ACE inhibition activity, the inhibitor was added to the experimental system as described above in such a manner as to give the final concentrations of 1, 3, 10, 30, 100, 300 and 1000 nM, an inhibition curve was prepared, and then the concentration at which 50% inhibition was achieved was taken as IC50.

A further series relates to SHR. The series can be described thus: Effect by oral administration on SHR, tail cuff method (Experiment C-6). It is filed as in vivo, Spontaneously hypertensive male rats. Here is the method:
By using Spontaneously hypertensive male rats (aged 16 to 17 weeks), the compound of Example C-8 and a comparative compound [S-(R*,R*)]-2,3,4,5-tetrahydro-3-[(2-mercapto-1-oxohexyl)amino]-2-oxo-1H-benzazepine-1-acetic acid having the following structure each dissolved in 0.5% methylcellulose were orally administered thereto. Hypotensive effects were measured by the tail cuff method and data obtained before the oral administration and 2, 4 and 8 hours after the administration were compared. […] Accordingly, the compound of Example C-8 has an activity about 10 times as high as that of the comparative compound. [drawing 35]

Series [2] has as its target T2, vasopressin (V2) receptor (Rattus norvegicus, UniProt Q00788).
T2 construct: rat kidney (V2); from tissue; host or cells: rat kidney membranes
Briefly: V2 receptor binding assay, rat kidney membrane (Experiment E-3). To be noted: [3H]-Arg-vasopressin, pH 7.4. On the procedure: Membrane specimens of rat liver (V1) and rat kidney (V2) were used. 100,000 counts (3.69 nM) of [^3 H]-Arg-vasopressin, 25 μg (1 mg protein/ml) of each membrane specimen and a test medicament (10^-7 to 10^-5 M) were incubated in a total volume of 250 μl of an assay buffer (pH=7.4) containing 10 mM of MgCl2, 2 mM of EGTA and 20 mM of HEPES at 4° C. over day and night. Then, the incubation was washed with 5-ml portions of the buffer 5 times to thereby separate the membrane specimen binding to vasopressin followed by filtration with the use of a glass filter (GF/F). This glass filter was dried for about 3 hours and mixed with a cocktail for liquid scintillation (10 ml, ACSII). After allowing to stand overnight, the amount of the [^3 H]-Arg-vasopressin binding to the membrane was determined with a liquid scintillation counter and the inhibition ratio was calculated in accordance with the following formula: […]
B1; the amount of [^3 H]-Arg-vasopressin binding to the membrane in the presence of excessive vasopressin (10 μM)
C0; the amount of [^3 H]-Arg-vasopressin binding to the membrane in the absence of the test medicament and
C1; the amount of [^3 H]-Arg-vasopressin binding to the membrane in the presence of both the test medicament in a known amount and [^3 H]-Arg-vasopressin. […]

T2 sequence (Q00788 whole entry): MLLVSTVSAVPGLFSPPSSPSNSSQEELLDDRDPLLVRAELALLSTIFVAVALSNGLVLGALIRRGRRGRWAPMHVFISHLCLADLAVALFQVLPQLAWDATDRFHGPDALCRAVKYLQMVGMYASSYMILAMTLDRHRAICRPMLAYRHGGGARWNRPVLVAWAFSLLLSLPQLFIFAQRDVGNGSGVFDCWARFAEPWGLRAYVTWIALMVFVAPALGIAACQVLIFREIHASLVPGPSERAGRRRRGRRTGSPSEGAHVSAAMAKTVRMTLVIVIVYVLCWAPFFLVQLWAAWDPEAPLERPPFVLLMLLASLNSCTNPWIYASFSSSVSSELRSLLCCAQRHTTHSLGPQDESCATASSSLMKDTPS

As for `O=C(N[C@H]1Cc2ccccc2[C@H]2CCC[C@@H](C(=O)O)N2C1=O)[C@@H](S)Cc1ccccc1` [Comp. cpd. E-1, [4S-[4α,7α(R*),12bβ]]-7-[(1-oxo-2-(S)-thio-3-phenyl-propyl)amino]-1,2,3,4,6,7,8,12b-octahydro-6-oxopyrido-[2,1-a][2]benzazepine-4-carboxylic acid, reference compound], the results for the bioavailability in series [1] (10 mg/kg) and in series [1] (30 mg/kg) were 4.3% and 7.8%, respectively.

Take `CC[C@H](C)[C@H](S)C(=O)NC1CCc2ccccc2N(CC(=O)O)C1=O` (stereo partly drawn) [Example A-9, 1-Carboxymethyl-3-[(2S,3S)-2-mercapto-3-methylvarelylamino]-1H-[1]benzazepin-2-one]: the IC50 against ACE is 13 nM.

In the case of `CC[C@H](C)[C@H](S)C(=O)N[C@H]1CCc2ccccc2N(CC(=O)O)C1=O` [Example A-11, (S)-3-[(2S,3S)-2-Mercapto-3-methylvarelylamino]-1-carboxymethyl-2,3,4,5-tetrahydro-1H-[1]benzazepin-2-one], on ACE, 11 nM corresponded to half-maximal inhibition (IC50).

Consider `CC[C@H](C)[C@H](S)C(=O)N[C@H]1CCC[C@H]2SC[C@@H](C(=O)O)N2C1=O` [Example C-8, [3R-[3α,6α,(S*),9aβ]]-6-[[(2S,3S)-3-methyl-1-oxo-2-thiopentyl]amino]-octahydro-5-oxothiazol[3,2-a]-azepine-3-carboxylic acid], for which the “hypotensive effect (tail cuff method)” value with SHR (1.0 mg/kg oral, before and 2, 4 and 8 hours after) is given as “comparable to the one achieved by 10 mg/kg of the above comparative compound”. Besides, the “activity relative to the comparative compound” value in the series with SHR (oral, SHR) is reported as “about 10 times”.

In series [2], `CC(C)[C@H](S)C(=O)N[C@H]1Cc2ccc(-c3ccccc3)cc2[C@H]2CCC[C@@H](C(=O)O)N2C1=O` [Example E-10, [4S-[4α,7α(R*),12bβ]]-7-[(S)-2-Mercapto-3-methylbutyrylamino]-6-oxo-11-phenyl-1,2,3,4,6,7,8,12b-octahydropyrido[2,1-a][2]benzazepine-4-carboxylic acid] yielded an IC50 of 4490 nM.
